Experimental data: US20160212993A1, “ADJUVANT COMPOSITIONS” (SYNGENTA LIMITED, priority 2012, published 2016)

What was measured:
Type in all cases: in vivo
[1] = system: Alternaria solani; test: Alternaria solani / tomato / preventative, ALTELYP/ff-pr; settings: Table 4, adjuvant alone, 0.20%, average of three replicates
Procedure: (§1) In general, active ingredient is formulated (SC, SL) and just before spraying the formulations are mixed with water and ultrasonically agitated in order to achieve homogeneous distribution. Spray solutions are made up in water. Adjuvants are added as tank mix to the spray solution just before application. Foliar application is at 200 L/ha in an application device spraying with a single nozzle (type Lechler) 60 cm above the plants. Preventative tests are performed as 1 or 2 day preventative applications, i.e. plants are treated with the compounds 1 or 2 days prior to artificial inoculation with fungal spores, whereas for curative tests the inoculation is carried out prior to application. A single evaluation of disease level is made 5 to 48 days after inoculation, depending on the pathosystem. Disease control relative to the untreated check plants is then calculated. In the following examples, all treatments were sprayed at […] spray volume in 10% isopropanol solution to normalise foliar retention: Azoxystrobin;—Quadris SC250, Isopyrazam;—SC250, Cyproconazole: —Alto SL100, Chlorothalonil; Bravo SC720
Alternaria solani/Tomato/Preventative (Alternaria on Tomato)->ALTELYP/ff-pr-S:
4-week old tomato plants cv. Roter Gnom are sprayed in a spray chamber with the formulated test compound diluted in water. The test plants are inoculated by spraying them with a spore suspension two days after application. The inoculated test plants are incubated at 22/18° C. (day/night) and 95% rh in a greenhouse and the percentage leaf area covered by disease is assessed when an appropriate level of disease appears on untreated check plants (5-7 days after application).

[2] = system: Mycosphaerella graminicola (Septoria tritici); test: Mycosphaerella graminicola (Septoria tritici) / wheat / preventative, SEPTTRZ/ff-pr; settings: Table 3, adjuvant alone, 0.20%, average of three replicates
Procedure: as §1
Mycosphaerella graminicola (Septoria tritici)/Wheat/Preventative (Septoria tritici Leaf Spot on Wheat)->SEPTTRZ/ff-pr-S:
2-week old wheat plants cv. Riband are sprayed in a spray chamber with the formulated test compound diluted in water. The test plants are inoculated by spraying a spore suspension on them one day after application. After an incubation period of 1 day at 22° C./21° C. (day/night) and 95% rh, the inoculated test plants are kept at 22° C./21° C. (day/night) and 70% rh in a greenhouse. Percentage leaf area covered by disease was assessed and efficacy was calculated compare to untreated controls when an appropriate level of disease appears on untreated check plants (16-19 days after application).

[3] = system: Puccinia recondita f. Sp. Tritici; test: Puccinia recondita f. sp. tritici / wheat / preventative (brown rust on wheat), PUCCTRZ/ff-pr; parameters: key: % disease control relative to untreated check; settings: 0.20%, average of three replicates
Procedure: as §1
Puccinia recondita f. Sp. Tritici/Wheat/Preventative (Brown Rust on Wheat)->PUCCTRZ/ff-pr-S:
2-week old wheat plants cv. Arina are sprayed in a spray chamber with the formulated test compound diluted in water. The test plants are inoculated by spraying them with a spore suspension one day after application. After an incubation period of 1 day at 20° C. and 95% rh, the inoculated test plants are kept at 20° C./18° C. (day/night) and 60% rh in a greenhouse. The percentage leaf area covered by disease is assessed when an appropriate level of disease appears on untreated check plants (12-14 days after application).

[4] = system: Puccinia recondita f. Sp. Tritici; test: Puccinia recondita f. sp. tritici / wheat / curative (brown rust on wheat), PUCCTRZ/ff-cu; parameters: key: % disease control relative to untreated check plants; settings: 0.20%, average of three replicates
Procedure: as §1
Puccinia recondita f. Sp. Tritici/Wheat/Curative (Brown Rust on Wheat)->PUCCTRZ/ff-cu-S:
2-week old wheat plants cv. Arina are inoculated by spraying them with a spore suspension two days before application. After an incubation period of 1 day at 20° C. and 95% rh followed by 1 day at 20° C. and 60% rh in a greenhouse, the inoculated test plants are sprayed in a spray chamber with the formulated test compound diluted in water. After additional incubation at 20° C./18° C. (day/night) and 60% rh in a greenhouse, the percentage leaf area covered by disease is assessed when an appropriate level of disease appears on untreated check plants (9-12 days after application).

Row | Compound | ALTELYP/ff-pr, visual assessment of control [1] | SEPTTRZ/ff-pr, visual assessment of control [2] | PUCCTRZ/ff-pr, visual assessment of control ([3]; Table 1, adjuvant alone) | PUCCTRZ/ff-pr, visual assessment of control ([3]; Table 2, adjuvant alone) | PUCCTRZ/ff-pr, visual assessment of control ([3]; Table 3, adjuvant alone) | PUCCTRZ/ff-pr, visual assessment of control ([3]; Table 4, adjuvant alone) | PUCCTRZ/ff-cu, visual assessment of control ([4]; Table 1, adjuvant alone) | PUCCTRZ/ff-cu, visual assessment of control ([4]; Table 2, adjuvant alone)
1 | CCCCCCCC/C=C\CCCCCCCC(=O)OC [Methyl oleate, reference compound] | 0 | 0 | 0 | 0 | 0 | 0 | 0 | 0
2 | Nopol-5PO-7EO [Nopol-5PO-7EO (Rhodoclean EFC)] | 6 | 0 | 0 | 0 | 0 | 0 | 0 | 0
3 | Nopol-5PO-9EO [Nopol-5PO-9EO (Rhodoclean MSC)] | 0 | 15 | 0 | 0 | 0 | 0 | 0 | 0
4 | Nopol-5PO-25EO [Nopol-5PO-25EO (Rhodoclean 525)] | 2 | 7 | 0 | 0 | 0 | 0 | 0 | 0
